These results are taken from patent US6809193B2, “Antisense oligonucleotide compositions and methods for the modulation of JNK proteins” (ISIS Pharmaceuticals, Inc., priority 1997, dated 2004).

In one data set the test system is MDA-MB-231 tumors. The experiment in a line: MDA-MB-231 human tumor xenograft in nude mice. Type of data set: in vivo. To be noted: 25 mg/kg intravenous once daily; for tumor growth compared to the saline control: MDA-MB-231 tumors; for Mean Tumor Volume (cm^3): nude mice. From the text: Approximately 5×10^6 breast adenocarcinoma cells (cell line MDA-MB-231; American Type Culture Collection, 10801 University Boulevard, Manassas, Va. 20110-2209, No. ATCC HTB-26) were implanted subcutaneously in the right inner thigh of nude mice (n=6 for each of three sets of mice). Oligonucleotides ISIS 15346 (JNK1, SEQ ID NO:16) and 15353 (JNK2, SEQ ID NO:31) were suspended in saline and administered once daily to two sets of mice on the first day the tumor volume was about 100 mm^3. A saline-only (0.9% NaCl) solution was given to a third set of animals as a control. Oligonucleotides were given by intravenous injection at a dosage of 25 mg/kg. Tumor size was measured and tumor volume was calculated on days 12, 19, 26 and 33 following tumor cell inoculation.

The next data set has as its system JNK1 protein. The experiment in a line: Western assay, JNK1 protein levels in A549 cells. The note with it: t = 72 h. It is filed as cell-based, human. The procedure:
(§1) In order to evaluate the activity of potential JNK-modulating oligonucleotides, human lung carcinoma cell line A549 (American Type Culture Collection, 10801 University Boulevard, Manassas, Va. 20110-2209, No. ATCC CCL-185) cells or other cell lines as indicated in the Examples, were grown and treated with oligonucleotides or control solutions as detailed below. After harvesting, cellular extracts were prepared and examined for specific JNK mRNA levels or JNK protein levels (i.e., Northern or Western assays, respectively). In all cases, “% expression” refers to the amount of JNK-specific signal in an oligonucleotide-treated cell relative to an untreated cell (or a cell treated with a control solution that lacks oligonucleotide), and “% inhibition” is calculated as
A549 cells were grown and treated with oligonucleotides as described above. […] The amount of each JNK protein was determined by using a primary antibody that specifically recognizes the appropriate JNK protein. […]
In order to assess the effect of oligonucleotides targeted to JNK1 mRNAs on JNK1 protein levels, Western assays were performed essentially as described above in Example 2, with the following exception(s) and/or modification(s). […] The samples from t=48 h and t=72 h were analyzed using the Northern and Western assays described above.

Another data set concerns JNK1 mRNA. The experiment in a line: Northern assay, JNK1 mRNA expression in A549 cells. It is filed as cell-based, human. To be noted: for inhibition of JNK1 mRNA expression: 400 nM, Northern assay, Table 5; for RNA % Inhibition: JNK1 mRNA.
Another data set has as its system JNK2 mRNA. The experiment in a line: Northern assay, JNK2 mRNA expression in A549 cells. It is filed as cell-based, human. To be noted: for inhibition of JNK2 mRNA expression: 400 nM, Northern assay, Table 12; for dose- and sequence-dependent response on JNK2 mRNA levels: A549 cells, 50, 100, 200 and 400 nM. The procedure:
as §1
100%−%Expression=%Inhibition.
The mRNA expression of each JNK protein was determined by using a nucleic acid probe specifically hybridizable thereto. Nucleic acid probes specific for JNK1, JNK2 and JNK3 are described in Examples 3, 4 and 5, respectively. The probes were radiolabelled by means well known in the art (see, e.g., Short Protocols in Molecular Biology, 2nd Ed., Ausubel et al., Eds., John Wiley & Sons, New York, 1992, pages 3-11 to 2-3-44 and 4-17 to 4-18; Ruth, Chapter 6 In: Methods in Molecular Biology, Vol. 26: Protocols for Oligonucleotide Conjugates, Agrawal, ed., Humana Press Inc., Totowa, N.J., 1994, pages 167-185; and Chapter 10 In: Molecular Cloning: A Laboratory Manual, 2nd Ed., Sambrook et al., Eds., pages 10.1-10.70). The blots were stripped and reprobed with a ^32P-labeled glyceraldehyde 3-phosphate dehydrogenase (G3PDH) probe (Clontech Laboratories, Inc., Palo Alto, Calif.) in order to confirm equal loading of RNA and to allow the levels of JNK transcripts to be normalized with regard to the G3PDH signals.
A549 cells were grown in T-75 flasks until 80-90% confluent. At this time, the cells were washed twice with 10 mL of media (DMEM), followed by the addition of 5 mL of DMEM containing 20 μg/mL of LIPOFECTIN™ (i.e., 1:1 (w/w) DOTMA/DOPE, Life Technologies, Gaithersburg, Md.; DOTMA=N-[1-(2,3-dioleyoxy)propyl]-N,N,N-trimethylammonium chloride; DOPE=dioleoyl phosphatidylethanolamine). The oligonucleotides were added from a 10 μM stock solution to a final concentration of 400 nM, and the two solutions were mixed by swirling the flasks. As a control, cells were treated with LIPOFECTIN™ without oligonucleotide under the same conditions and for the same times as the oligonucleotide-treated samples. After 4 hours at 37° C., the medium was replaced with fresh DMEM containing 10% serum. The cells were allowed to recover for 18 hours. Total cellular RNA was then extracted in guanidinium, subject to gel electrophoresis and transferred to a filter according to techniques known in the art (see, e.g., Chapter 7 In: Molecular Cloning: A Laboratory Manual, 2nd Ed., Sambrook et al., Eds., pages 7.1-7.87, and Short Protocols in Molecular Biology, 2nd Ed., Ausubel et al., Eds., John Wiley & Sons, New York, 1992, pages 2-24 to 2-30 and 4-14 to 4-29). Filters were typically hybridized overnight to a probe specific for the particular JNK gene of interest in hybridization buffer (25 mM KPO4, pH 7.4; 5×SSC; 5× Denhardt's solution, 100 μg/ml Salmon sperm DNA and 50% formamide) (Alahari et al., Nucl. Acids Res., 1993, 21, 4079). This was followed by two washes with 1×SSC, 0.1% SDS and two washes with 0.25×SSC, 0.1% SDS. Hybridizing bands were visualized by exposure to X-OMAT AR film and quantitated using a PHOSPHORIMAGER™ essentially according to the manufacturer's instructions (Molecular Dynamics, Sunnyvale, Calif.).
In initial screenings of a set of oligonucleotides derived from the JNK2 sequence (Table 9) for biological activity, a cDNA clone of JNK2 (Kallunki et al., Genes & Development, 1994, 8, 2996) was radiolabeled and used as a JNK2-specific probe in Northern blots. […]

A further data set relates to HUVEC. The data set can be described thus: Apoptosis in HUVEC, percent hypodiploid cells by flow cytometry. Type of data set: cell-based, human. The note with it: HUVEC treated with JNK2 oligonucleotide plus the agent.
The test system of the next data set is JNK activity. The experiment in a line: TNFa-induced JNK activity in HUVEC (GST-c-Jun phosphorylation). To be noted: 100 nM, 5 ng/ml TNFa 15 minutes, compared to a control oligonucleotide. Type of data set: cell-based, human.

Strand notation (5' to 3'): a small letter for the sugar, then the base; units joined by * are phosphorothioate-linked, units joined directly phosphodiester-linked; [ ] holds rarer units or linkages, { } end groups; capitals alone tell only the bases. Where a SMILES comes first, the peptide text is derived from it. The star is where a group is joined. e = 2'-O-(2-methoxyethyl) (MOE); [5mC] = 5-methylcytosine; Cbz = O=C(OCc1ccccc1)*; d = 2'-deoxy (DNA); CH2F = FC*

Take “15346 (antisense CTCTCTGTAGGCCCGCTTGG; gapmer, 2'-MOE wings, phosphorothioate, chemistry not fully specified) [compound 15346]”: in the data set with MDA-MB-231 tumors, the “tumor growth compared to the saline control” value is “inhibited tumor growth compared to the saline control”. In addition, the “Protein % Inhibition” value in the data set with JNK1 protein is recorded as 74.3%. Moreover, the “inhibition of JNK1 mRNA expression” value in the data set with JNK1 mRNA was “at least 88%”.

Regarding “15347 (antisense CTCTCTGTAGGCCCGCTTGG; gapmer, 2'-MOE P=O wings, P=S deoxy core, chemistry not fully specified) [compound 15347]”, the “Protein % Inhibition” value with JNK1 protein is 71.6%. The “inhibition of JNK1 mRNA expression” value in the data set on JNK1 mRNA is given as “at least 88%”. In addition, the “RNA % Inhibition” value is above 70% in the data set with JNK1 mRNA (t = 48 h, 300 nM for initial 20 hours then 200 nM for 4 hours) and above 70% with JNK1 mRNA (t = 72 h).

In the case of “15353 (antisense eG*eT*e[5mC]*e[5mC]*eG*dG*dG*dC*dC*dA*dG*dG*dC*dC*eA*eA*eA*eG*eT*e[5mC]) [compound 15353]”, the “tumor growth compared to the saline control” value in the data set on MDA-MB-231 tumors was “inhibited tumor growth compared to the saline control”. The “inhibition of JNK2 mRNA expression” value in the data set on JNK2 mRNA is on record as “approximately 80%”.

On to “15354 (antisense eGeTe[5mC]e[5mC]eG*dG*dG*dC*dC*dA*dG*dG*dC*dC*eAeAeAeGeTe[5mC]) [compound 15354]”, for which, in the data set with JNK2 mRNA, the “inhibition of JNK2 mRNA expression” value is reported as “approximately 80%”.

In the case of `C[C@@H]1C[C@@H]([C@H](O)CC2CC(=O)NC(=O)C2)C(=O)[C@@H](C)C1` [cyclohexamide], in the data set with HUVEC, the “effect on JNK2 oligonucleotide-induced cell death (apoptosis)” value is given as “had no effect on apoptosis”.

On to `COC(=O)C[C@H](NC(=O)[C@H](C)NC(=O)[C@@H](NC(=O)OCc1ccccc1)C(C)C)C(=O)CF` [z-FAD.fmk, z-VAD.fmk] (Cbz-Val-Ala-Asp(OMe)-CH2F), for which the “effect on JNK2 oligonucleotide-induced cell death (apoptosis)” value in the data set on HUVEC is “decreased”.

Regarding “CTC-TCT-GTA-GGC-CCG-CTT-GG (antisense dC*dT*dC*dT*dC*dT*dG*dT*dA*dG*dG*dC*dC*dC*dG*dC*dT*dT*dG*dG) [ISIS 12539, human JNK1 antisense, fully P=S and fully 2′-deoxy]”, in the data set with JNK2 mRNA, the “dose- and sequence-dependent response on JNK2 mRNA levels” value is “dependent on dose in an approximately linear fashion”. Also, the “dose- and sequence-dependent response on JNK1 mRNA levels” value in the data set with JNK1 mRNA (A549 cells, 50, 100, 200 and 400 nM) was “dependent on dose in an approximately linear fashion”. Moreover, the “% Inhibition” value in the data set on JNK1 mRNA (JNK1 mRNA time course, 48 h) is given as “greater than or equal to 80%”.

As to “C^sT^sC^sT^sC^sT^sG^sT^sA^sG^sG^sC^sC^sC^sG^sC^sT^sT^sG^sG (antisense CTCTCTGTAGGCCCGCTTGG; all phosphorothioate, sugars by position and methylation of C not given here) [ISIS 15346, JNK1 gapmer: P=S, 2′-MOE wings; P=S, 2′-deoxy core]”, the “Mean Tumor Volume (cm^3)” value in the data set with MDA-MB-231 tumors (Day 12 following tumor cell inoculation) is given as 0.122 cm^3; in the data set on MDA-MB-231 tumors (Day 19) it was 0.255 cm^3; in the data set with MDA-MB-231 tumors (Day 26) it was 0.400 cm^3; in the data set on MDA-MB-231 tumors (Day 33), 0.638 cm^3. Besides, the “inhibition of TNFa-induced JNK activity” value with JNK activity is given as “approximately 70%”.

With “G^SA^SC^ST^ST^ST^SG^SG^SC^SC^ST^SG^SG^SC^SC^SC^SG^SG^SA^SC (GACTTTGGCCTGGCCCGGAC; DNA, all phosphorothioate, methylation of C not given here) [ISIS 14318, 12560 sense control, 2′-deoxy-phosphorothioate, reference compound]”, the “dose- and sequence-dependent response on JNK2 mRNA levels” value in the data set on JNK2 mRNA is “neither of the control oligonucleotides effect any consistent response”.

As to “G^ST^SG^SC^SG^SC^SG^SC^SG^SA^SG^SC^SC^SC^SG^SA^SA^SA^ST^SC (GTGCGCGCGAGCCCGAAATC; DNA, all phosphorothioate, methylation of C not given here) [ISIS 14319, 12560 scrambled control, 2′-deoxy-phosphorothioate, reference compound]”, the “dose- and sequence-dependent response on JNK2 mRNA levels” value with JNK2 mRNA is listed as “neither of the control oligonucleotides effect any consistent response”.
